Data published in paper PMC2963310 (Science (New York, N.Y.), 2009).

How the values were obtained:
LGC-40 [1] = target: T1, LGC-40 (Caenorhabditis elegans, UniProt Q22741); assay: Inhibition of choline-evoked LGC-40 currents in Xenopus oocytes; type: cell-based
T1 sequence (Q22741 23-494): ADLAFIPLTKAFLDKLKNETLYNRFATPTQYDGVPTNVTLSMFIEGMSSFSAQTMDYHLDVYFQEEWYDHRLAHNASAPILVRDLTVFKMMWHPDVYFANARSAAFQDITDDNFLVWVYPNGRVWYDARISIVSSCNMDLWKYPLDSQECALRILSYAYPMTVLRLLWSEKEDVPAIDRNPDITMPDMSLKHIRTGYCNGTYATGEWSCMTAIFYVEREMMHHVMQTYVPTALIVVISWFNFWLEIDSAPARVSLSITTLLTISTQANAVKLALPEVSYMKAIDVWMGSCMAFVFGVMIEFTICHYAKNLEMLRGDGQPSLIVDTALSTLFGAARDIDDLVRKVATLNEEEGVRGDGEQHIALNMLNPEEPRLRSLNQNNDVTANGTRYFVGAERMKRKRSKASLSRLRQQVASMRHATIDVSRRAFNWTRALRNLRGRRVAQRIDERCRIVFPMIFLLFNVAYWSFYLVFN

LGC-40 [2] = target: T1, LGC-40; type: cell-based; conditions: for estimated Hill coefficient, LGC-40: dose-response data fitted to the Hill equation
LGC-53 [3] = target: T2, LGC-53 (Caenorhabditis elegans, UniProt H2KYN9); assay: cell-based
LGC-53 [4] = target: T2, LGC-53
LGC-53 [5] = target: T2, LGC-53; assay: Inhibition of dopamine-evoked LGC-53 currents in Xenopus oocytes; type: cell-based
LGC-55 = LGC-55 (Caenorhabditis elegans, UniProt G5EEC1); type: cell-based
[6] = dose-response data fitted to the Hill equation
[7] = panel: serotonin, dopamine, octopamine, tyramine, histamine

## C[N+]1(C)CCOC(O)(c2ccc(-c3ccc(C4(O)C[N+](C)(C)CCO4)cc3)cc2)C1 (stereo not shown) [Hemicholinium-3, hemicholinium-3]
LGC-40 [1]
  IC50: 2 µM

## CC(=O)OCC[N+](C)(C)C [acetylcholine]
LGC-40 [2]
  EC50: 87 µM
  estimated Hill coefficient, LGC-40: 1.5

## CN1[C@@H]2CC[C@H]1C[C@@H](OC(=O)C(CO)c1ccccc1)C2 (stereo partly shown) [atropine]
LGC-40 [1]; currents evoked by 2 μM choline
  sensitivity of LGC-40 currents to antagonist (in words): relatively insensitive

## C[N+](C)(C)CCO [choline]
LGC-40 [2]
  EC50: 3.4 µM
  estimated Hill coefficient, LGC-40: 1.9

## COc1cc2c3cc1Oc1cc(ccc1O)C[C@@H]1c4c(cc(OC)c(O)c4Oc4ccc(cc4)C[C@@H]3N(C)CC2)CC[N+]1(C)C [d-tubocurarine]
LGC-40 [1]
  IC50: 8.3 µM

## NCCc1ccc(O)c(O)c1 [dopamine]
LGC-53 [3]
  EC50: 4.4 µM
LGC-53 [4]; [6]
  estimated Hill coefficient, LGC-53: 1.9
LGC-53 [4]; [7]
  efficacy of activation of LGC-53 among the biogenic amines tested (in words): highest efficacy

## NCCc1c[nH]c2ccc(O)cc12 [serotonin]
LGC-40 [2]
  EC50: 905 µM
  estimated Hill coefficient, LGC-40: 2.7

## O=C(CCCN1CCC2(CC1)C(=O)NCN2c1ccccc1)c1ccc(F)cc1 [spiperone]
LGC-53 [5]
  IC50: 38 µM

## NCCc1ccc(O)cc1 [tyramine]
LGC-55
  EC50: 6 µM
LGC-55; [6]
  estimated Hill coefficient, LGC-55: 1.8
LGC-55; [7]
  efficacy of activation of LGC-55 among the biogenic amines tested (in words): highest efficacy
